The values that follow come from patent publication US9284283B2, “Macrocyclic compounds for modulating IL-17” (ENSEMBLE THERAPEUTICS CORPORATION, priority 2012, dated 2016).

A word on the IC50: it is the concentration that inhibits the measured activity by half.

The target of the first test is T1, recombinant human IL17a (binding to its receptor IL17R) (Homo sapiens, UniProt Q16552).
T1 construct: purchased R&D Systems 317-ILB (IL17a); 177-IR (IL17R/Fc)
T1 sequence (Q16552 20-155 limits assumed): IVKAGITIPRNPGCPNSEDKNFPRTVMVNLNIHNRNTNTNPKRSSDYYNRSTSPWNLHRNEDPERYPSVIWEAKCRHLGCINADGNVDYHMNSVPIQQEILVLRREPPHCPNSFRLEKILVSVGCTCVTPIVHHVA
Description: IL-17 competition ELISA I (IL17a coated, IL17R/Fc binding). As to the method:
ELISA I: The ability of the compounds to block binding of IL17a to its receptor, IL17R, was analyzed in a competition ELISA format. High binding 96-well plates (Costar #9018) were coated with 20 nM of recombinant human IL17a (R&D Systems #317-ILB) in PBS (0.64 μg/mL), 100 μL/well, for 30 min at 37′C followed by 5 min at 4′C. Plates were then washed in PBST (PBS/0.05% Tween-20) on a plate washer, (Biotech EL-450) blocked with protein-free blocking buffer (Thermo Scientific #37573) in 250 μL/well for 30 min on shaker at room temperature, and then washed again. Compound dilutions prepared in PBST were added into the wells in duplicates followed by the addition of IL17R/Fc (R&D Systems #177-IR) at a final concentration of 12 nM. Plates were then incubated for 30 min at room temperature on the shaker. Wells with no compound served as a positive “no competitor” control, while wells with no IL17R/Fc and no compound served as a blank negative control. After an additional PBST wash, 50 ng/mL HRP-conjugated goat anti-human Fc IgG (KPL #04-10-20) was added to the plate for 30 min at room temperature, followed by PBST wash and addition of SureBlue™ TMB (KPL #52-00-03). After the sufficient color development, the reaction was fixed by the addition of 100 μL/well 0.5 N HCl and absorbance was measured at 450 nm on Biotek plate reader.
Data were processed using BioAssay Enterprise v10.1.4 (CambridgeSoft) software. Linear OD λ450 were plotted against log concentration (x) and fitted to a 4-parameter logistic equation. IC50 was calculated using positive ‘no competitor’ control data as an upper limit and blank control as a lower limit in each assay.
For orientation: In an ELISA, binding on a coated surface is turned into a signal by an enzyme label.
For `C[C@@H]1C(=O)NCCCCCNC(=O)CC2(CCCC2)CC(=O)N[C@H](Cc2ccc(NC(=O)[C@H](Cc3ccccc3Cl)NC(=O)Cc3ccccc3)cc2)C(=O)N1C` [Compound 289], the IC50 fell in the range of 1000 to 10000 nM.

Turning to `CN(C)CC(=O)N[C@@H](Cc1ccccc1Cl)C(=O)Nc1ccc(C[C@H]2NC(=O)CC3(CCCC3)CC(=O)NCCCCCNC(=O)CNC2=O)cc1` [Compound 303], the IC50 was in the range of 100 to 1000 nM. On the same count and under the same terms, to `CN1CCCCCNC(=O)CNC(=O)[C@@H](Cc2ccc(NC(=O)[C@H](Cc3ccccc3Cl)NC(=O)c3ccc(F)cc3)cc2)NC(=O)CC2(CCCC2)CC1=O` [Compound 306] belongs 100 to 1000 nM.

Take `O=C1CC2(CCCC2)CC(=O)N[C@H](Cc2ccc(NC(=O)[C@@H](NC(=O)Cc3ccccc3)C3CCCCC3)cc2)C(=O)NCCCCCCCCN1` [Compound 334]: the IC50 lay in the range of 1000 to 10000 nM.

A further test has as its target T2, biotinylated human IL-17 (binding to IL17R/Fc) (Homo sapiens, UniProt Q16552).
T2 construct: purchased R&D Systems 317-ILB (IL-17, biotinylated); 177-IR (IL17R/Fc)
T2 sequence (Q16552 20-155 limits assumed): T1 sequence (Q16552 20-155 limits assumed)
Description: IL-17 competition ELISA II (captured IL17R/Fc, biotinylated IL-17). The method in brief:
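Anti-human IgG-coated plates captured IL17R/Fc (10 nM), then compound (5-fold dilutions from 1 μM) and biotinylated human IL-17 (20 nM stock) were added for 30 min at room temperature in PBST. Bound IL-17 detected by streptavidin-HRP/TMB at 450 nm. IC50 from 4-parameter logistic fit between no-competitor and blank controls.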
In the case of `O=C1CC2(CCCC2)CC(=O)N[C@H](Cc2ccc(NC(=O)[C@@H](NC(=O)c3ccncc3)C3CCCCC3)cc2)C(=O)N[C@H](Cc2ccccn2)C(=O)NCCCCCN1` [Compound 436], the IC50 was in the range of 100 to 1000 nM.

Take `CN1CCCCCNC(=O)CC2(CCCC2)CC(=O)NC(Cc2ccc(NC(=O)C(NC(=O)c3cccnc3)C3CCCCC3)cc2)C1=O` (centres unmarked) [Compound 422]: the IC50 lay within 1000 to 10000 nM. For `O=C1CC2(CCCC2)CC(=O)N[C@H](Cc2ccc(NC(=O)[C@H](Cc3ccccc3Cl)NC(=O)Cc3ccccc3)cc2)C(=O)NCCOCCN1` [Compound 397], the IC50 was < 100 nM. Still for that read-out and setting: to `CN1CCNC(=O)CC2(CCCC2)CC(=O)N[C@H](Cc2ccc(NC(=O)[C@H](Cc3ccccc3Cl)NC(=O)NCc3ccccc3)cc2)C(=O)NCC1` [Compound 485] belongs < 100 nM. On the same count and under the same terms, to `NC(=O)CC[C@H]1NC(=O)[C@@H](Cc2ccc(NC(=O)[C@H](Cc3ccccc3Cl)NC(=O)C3(c4ccc(F)cc4)CC3)cc2)NC(=O)CC2(CCCC2)CC(=O)N[C@H](C(=O)O)CCCCNC1=O` [Compound 527] belongs < 100 nM; to `O=C1CC2(CCCC2)CC(=O)N[C@H](Cc2ccc(NC(=O)[C@@H](NC(=O)C(F)(F)c3ccccc3)C3CCCCC3)cc2)C(=O)NCCOCCOCCN1` [Compound 595], < 100 nM; to `CN1CCOCCOCCNC(=O)[C@@H](Cc2ccc(NC(=O)[C@H](Cc3ccccc3Cl)NC(=O)[C@H](O)c3ccccc3)cc2)NC(=O)CC2(CCCC2)CC1=O` [Compound 581], < 100 nM. Same read-out and setting: to `CN1CCOCCN(C)C(=O)[C@@H](CCS(C)(=O)=O)NC(=O)[C@@H](Cc2ccc(NC(=O)[C@H](Cc3ccccc3Cl)NC(=O)C(F)(F)c3ccccc3)cc2)NC(=O)CC2(CCCC2)CC1=O` [Compound 649] belongs < 100 nM; to `CC(=O)NC(C(=O)Nc1ccc(CC2NC(=O)CC3(CCCC3)CC(=O)OCCCCCN(C)C(=O)CNC2=O)cc1)C1CCCCC1` (centres unmarked) [Compound 681], < 100 nM. On to `O=C1CC2(CCCC2)CC(=O)N[C@H](Cc2ccc(NC(=O)[C@H](Cc3ccccc3C(F)(F)F)NC(=O)C3(c4ccc(F)cc4)CC3)cc2)C(=O)NCCOCCOCCN1` [Compound 508], for which the IC50 lay within 100 to 1000 nM. As to `CN1CCOCCN(C)C(=O)[C@@H](Cc2ccccn2)NC(=O)[C@@H](Cc2ccc(NC(=O)[C@H](Cc3ccccc3Cl)NC(=O)C(F)(F)c3ccccc3)cc2)NC(=O)CC2(CCCC2)CC1=O` [Compound 637], the IC50 was < 100 nM. Turning to `C[C@H]1NC(=O)[C@@H](CCNC(=O)[C@H](Cc2ccccc2Cl)NC(=O)Cc2ccc(F)cc2)NC(=O)CC2(CCCC2)CC(=O)NCCCCCNC1=O` [Compound 609], the IC50 was > 10000 nM.

In the case of `C[C@H]1NC(=O)[C@@H](Cc2ccc(NC(=O)[C@@H](Nc3nc4ccccc4o3)C3CCCCC3)cc2)NC(=O)CC2(CCCC2)CC(=O)N(C)CCOCCN(C)C1=O` [Compound 663], the IC50 is < 100 nM. Still for that read-out and setting: to `CC(C)(C)[C@H]1NC(=O)[C@@H](Cc2ccc(NC(=O)[C@H](Cc3ccccc3Cl)NC(=O)C3(c4ccc(F)cc4)CC3)cc2)NC(=O)CC2(CCCC2)CC(=O)NCCCCCNC1=O` [Compound 471] belongs 100 to 1000 nM; to `CN1CCCCCNC(=O)CC2(CCCC2)CC(=O)N(C)[C@H](Cc2ccc(N(C)C(=O)[C@H](Cc3ccccc3Cl)N(C)C(=O)Cc3ccccc3)cc2)C(=O)N(C)CC1=O` [Compound 363], 100 to 1000 nM. `CN1CCCCCN(C)C(=O)CC2(CCCC2)CC(=O)N[C@H](Cc2ccc(NC(=O)[C@H](Cc3ccccc3Cl)NC(=O)Cc3ccccc3)cc2)C(=O)NCC1=O` [Compound 387]: the IC50 is < 100 nM.

For `CN1CCNCCNC(=O)CC2(CCCC2)CC(=O)N[C@H](Cc2ccc(NC(=O)[C@H](Cc3ccccc3Cl)NC(=O)Cc3ccccc3)cc2)C(=O)N[C@H](Cc2ccccc2)C1=O` [Compound 433], the IC50 is < 100 nM. Still for that read-out and setting: to `C[C@H]1NC(=O)[C@@H](Cc2ccc(NC(=O)[C@H](Cc3ccccc3Cl)NC(=O)Cc3ccc(F)cc3)cc2)NC(=O)CC2(CCCC2)NC(=O)CCCCCNC1=O` [Compound 617] belongs < 100 nM. The same measure, in the same setting: as for `O=C1CNC(=O)[C@@H](Cc2ccc(NC(=O)[C@@H](NC(=O)c3cnc4ccccc4c3)C3CCCCC3)cc2)NC(=O)CC2(CCCC2)CC(=O)NCCCCCN1` [Compound 449], the figure is 100 to 1000 nM; as for `CN1CCCCCNC(=O)C(Cc2ccc(NC(=O)C(NC(=O)c3cccnc3)C3CCCCC3)cc2)NC(=O)CC2(CCCC2)CC1=O` (centres unmarked) [Compound 421], 1000 to 10000 nM. `C[C@H]1NC(=O)[C@@H](Cc2ccc(NC(=O)[C@H](Cc3ccccc3Cl)NC(=O)[C@H](O)c3ccccc3)cc2)NC(=O)CC2(CCCC2)CC(=O)N(C)CCOCCN(C)C1=O` [Compound 583]: the IC50 is < 100 nM. Same read-out and setting: as for `CN1CCNC(=O)CC2(CCCC2)CC(=O)N[C@H](Cc2ccc(NC(=O)[C@H](Cc3ccccc3Cl)NC(=O)Cc3ccc(CO)cc3)cc2)C(=O)NCC1` [Compound 402], the figure is < 100 nM; as for `CC(c1ccccc1)C(NC(=O)C(F)(F)c1ccccc1)C(=O)Nc1ccc(C[C@H]2NC(=O)CC3(CCCC3)CC(=O)N(C)CCOCCOCCNC2=O)cc1` (some centres unmarked) [Compound 643], < 100 nM; as for `CN(C)CCCC[C@H]1NC(=O)[C@@H](Cc2ccc(NC(=O)[C@H](Cc3ccccc3Cl)NC(=O)C(F)(F)c3ccccc3)cc2)NC(=O)CC2(CCCC2)CC(=O)N(C)CCOCCN(C)C1=O` [Compound 641], < 100 nM.

Consider `C[C@H]1NC(=O)[C@@H](CCNC(=O)[C@H](Cc2ccccc2Cl)NC(=O)C(F)(F)c2ccccc2)NC(=O)CC2(CCCC2)CC(=O)NCCCCCNC1=O` [Compound 610], for which the IC50 was > 10000 nM.

On to `CN1CCOCCN(C)C(=O)[C@@H](Cc2cccnc2)NC(=O)[C@@H](Cc2ccc(NC(=O)[C@H](Cc3ccccc3Cl)NC(=O)C(F)(F)c3ccccc3)cc2)NC(=O)CC2(CCCC2)CC1=O` [Compound 638], for which the IC50 was < 100 nM. Still for that read-out and setting: as for `CN1CCOCCOCCN(C)C(=O)[C@@H](Cc2ccc(NC(=O)[C@H](Cc3ccccc3Cl)NC(=O)Cc3ccccc3)cc2)NC(=O)CC2(CCCC2)CC1=O` [Compound 589], the figure is < 100 nM. Take `O=C1CC2(CCCC2)CC(=O)N[C@H](Cc2ccc(NC(=O)[C@H](Cc3ccccc3Cl)NC(=O)c3ccccc3)cc2)C(=O)NCCCCCCCCN1` [Compound 366]: the IC50 lay in the range of 100 to 1000 nM. Still for that read-out and setting: to `CN1CCNC(=O)CC2(CCCC2)CC(=O)N[C@H](Cc2ccc(NC(=O)[C@H](Cc3ccccc3Cl)NC(=O)Cc3cccc(O)c3)cc2)C(=O)NCC1` [Compound 467] belongs < 100 nM; to `O=C1CC2(CCCC2)CC(=O)N[C@H](Cc2ccc(NC(=O)[C@@H](NC(=O)c3cccnc3)C3CCCCC3)cc2)C(=O)NCCCCN1` [Compound 409], 100 to 1000 nM.

`C[C@H]1NC(=O)[C@@H](CCCNC(=O)[C@H](Cc2ccccc2Cl)NC(=O)Cc2ccc(F)cc2)NC(=O)CC2(CCCC2)CC(=O)NCCCCCNC1=O` [Compound 607]: the IC50 was > 10000 nM.

In the case of `CN1CCNC(=O)CC2(CCCC2)CC(=O)N[C@H](Cc2ccc(NC(=O)[C@H](Cc3ccccc3Cl)NC(=O)Cc3ccccc3)cc2)C(=O)N[C@H](Cc2ccccc2)C(=O)N(C)CC1` [Compound 416], the IC50 was < 100 nM. The same measure, in the same setting: to `CNC(=O)N[C@@H](Cc1ccccc1Cl)C(=O)Nc1ccc(C[C@H]2NC(=O)CC3(CCCC3)CC(=O)NCCOCCOCCNC2=O)cc1` [Compound 464] belongs < 100 nM.

With `C[C@H]1NC(=O)[C@@H](Cc2ccc(NC(=O)[C@H](Cc3ccccc3Cl)NC(=O)Cc3ccc(F)cc3)cc2)NC(=O)CC2(CCCC2)NC(=O)CCCCCCNC1=O` [Compound 618], the IC50 was < 100 nM.
